Assays:
[1] = tested on: bacterial strain LF82 binding to the glycoprotein BSA-(Mannose)3 (FimH antagonists); assay: Bacterial Binding Assay (BBA); type: cell-based, Escherichia coli; conditions: read-out: Bacterial Binding Assay IC50 ± SEM
Method in brief: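 Luciferase-expressing E. coli LF82, grown overnight at 37 °C without shaking, added as 2×10^8 bacteria/mL suspension with compound in BSA/D-PBS binding buffer. Wells were coated with 0.5–2 μg/mL BSA-(Man)3 and BSA-blocked, with 40–75 min binding at room temperature. After washing, adherent bacteria were read by luciferase luminescence and IC50 derived.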

[2] = tested on: AIEC LF82 strain on T84 intestinal epithelial cells; assay: Adhesion assay of AIEC LF82 strain on T84 intestinal epithelial cells (post-incubation test); type: cell-based, E. coli
Method: Residual adhesion is the ratio of level of colonization/decolonization of AIEC measured on cells, and is expressed in percentage. 100% corresponds to the control experiment (NT).
Adhesion Assays of AIEC LF82 Strain on T84 Intestinal Epithelial Cells
Compound 56 was evaluated for its ability to inhibit the adhesion of bacteria AIEC LF82 strain on T84 intestinal cells, in order to assess the therapeutic potential of the tested compounds in Crohn's Disease (CD) in particular. The following post-incubation test was used (also described in Brument et al. J. Med. Chem. 2013, 56, 5395-5406), wherein the tested compound is added after the bacteria are brought into contact with the cells. This test thus mimics a use of the compounds in curative treatment of pathologies associated with AIECs, in particular Crohn's disease.
E. coli strain LF82 isolated from an ileal biopsy of a CD patient was used as the AIEC reference strain. Bacteria were grown overnight in Luria-Bertani (LB) broth, and a bacterial suspension was prepared at a concentration of 6×10^6 bacteria/mL in DMEM/F12/SVF dec 10% medium for adhesion assays. The human intestinal cell line T84, purchased from American Type Culture Collection (ATCC, CCL-248), was maintained in an atmosphere containing 5% CO2 in the culture medium recommended by ATCC. […]

SMILES: Cc1cc(=O)[nH]cc1-c1cc(C#C[C@H]2O[C@H](CO)[C@@H](O)[C@H](O)[C@@H]2O)c2[nH]ncc2c1 [Compound 56, 4-methyl-5-[7-[2-[(2R,3S,4R,5S,6R)-3,4,5-trihydroxy-6-(hydroxymethyl)tetrahydropyran-2-yl]ethynyl]-1H-indazol-5-yl]-1H-pyridin-2-one]
- IC50 [1]: 0.2 ± 0.02 nM
- decolonization of adherent bacteria ([2]; at 10 nM, compound added after infection of T84 cells with LF82, 3 h at 37° C.): about 50%
- activity for the decolonization of the LF82 AIEC from T84 cells ([2]; from a concentration of 100 nM, FIG. 1): potent activity

— patent publication US10407414B2, “Mannose derivatives for treating bacterial infections” (priority 2015, dated 2019)
